Drawing on PubChem BioAssay (NCI), this text covers GI50 and TGI for 13 compounds.

What all share (experiment): growth of human tumour cells (NCI), 48 h
In test [1] the test system is HCT-15 colon.
Test [2] relates to HOP-62 NSCLC.
Test [3] concerns KM12 colon.
Test [4] has as its system MCF7 breast.
Test [5] concerns NCI-H460 lung.
Test [6] relates to NCI-H522 lung.
The subject of test [7] is OVCAR-8 ovarian.
Test [8] relates to RPMI-8226 leukemia.
The test system of test [9] is SF-295 CNS.
The subject of test [10] is TK-10 renal.

Several values for one entry are separate records, joined by “and”; a condition that tells them apart may be missing. Equal values may be shown once.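 Cells were grown in 96-well plates and exposed to each compound for 48 hours at five concentrations; endpoints were interpolated linearly between bracketing concentrations, or set to the highest concentration if not reached. GI50: concentration for 50% inhibition of growth. Definition used: TGI = concentration required for complete inhibition of growth.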

As to `O=C(Nc1cccc(Cl)c1)Nn1cnnc1`, the GI50 in test [1], in test [2], in test [3], in test [4], in test [5] and in [6] was over 50 µM each time. The GI50 in [7], in test [8], in [9] and in test [10] was over 50 µM in each case. Besides, the TGI in test [1], in test [2], in [3], in test [4], in [5] and in test [6] was over 100 µM throughout. Besides, the TGI in [7], in test [8], in [9] and in test [10] was over 100 µM in each case.

Regarding `Cc1ccc(S(=O)(=O)SC/C=C\CSS(=O)(=O)c2ccc(C)cc2)cc1`, the GI50 in test [1] was 6.16 µM and 43.4 µM; in test [6], 3.79 µM and 17.1 µM; in test [10] it was 50 µM and 20.4 µM. The TGI in test [1] is over 100 µM; in [2] it was over 100 µM; in test [3], > 100 µM and 30.4 µM; in [4], over 77.2 µM; in test [5] it was > 94 µM and 99.4 µM; in test [6], 15.6 µM and 30.8 µM. Moreover, the TGI in test [7] is 46.8 µM and 33.9 µM; in [8], 16.5 µM and 47 µM; in test [9], > 95.7 µM and 50.7 µM; in test [10], > 100 µM and 45.5 µM.

With `CCN1C(=O)N(CC)C2C1NN=c1s/c(=C\c3ccc(Cl)cc3Cl)c(=O)n12` (stereo not drawn), the GI50 in test [1] is 0.035 µM; in test [2], 0.0469 µM; in test [3], 0.0274 µM; in test [4], 0.0322 µM; in test [5], 0.0347 µM; in [6], 0.0216 µM. Moreover, the GI50 in test [7] was 0.0368 µM; in test [8], 0.0391 µM; in [9], 0.0315 µM; in test [10], 13.4 µM. The TGI in test [1] was over 100 µM; in test [2], over 72.8 µM; in test [3], over 32.6 µM; in test [4], over 43.4 µM; in test [5] it was 15.8 µM; in test [6], 0.219 µM. In addition, the TGI in test [7] turned out to be 36.6 µM; in test [8], 7.25 µM; in [9] it was 27.1 µM; in test [10], 59.3 µM.

Take `Clc1ccc(-c2cn3ccnc3c(-c3ccc(Cl)cc3)n2)cc1`: the GI50 in [1] was 3.38 µM; in [2], 31.4 µM; in [3] it was 5.33 µM; in test [4], 11.4 µM; in [5], 19.9 µM; in test [6], over 100 µM. The GI50 in test [7] was 16 µM; in test [8], 10.1 µM; in test [9], 11.1 µM; in [10] it was 22.6 µM. The TGI was 30.9 µM in test [1]; over 100 µM in test [2]; 37.9 µM in test [3]; over 100 µM in test [4]; over 100 µM in [5]; over 100 µM in test [6]. Moreover, the TGI is over 100 µM in test [7], over 100 µM in [8], 91.7 µM in test [9] and 73.5 µM in test [10].

For the compound `C=C1CCC2C3(C)COC(C)(C)OC3CCC2(C)C1C/C=C1/C(=O)OCC1OC(C)=O` (stereo not drawn), the GI50 in test [1] is 1.61 µM; in [2], 11.9 µM; in [3] it was 3.88 µM; in test [4] it was 1.76 µM; in test [5], 5.24 µM; in test [6], 0.476 µM. The GI50 is 2.18 µM in [7], 2.24 µM in [8], 11.5 µM in test [9] and 5.24 µM in [10]. Also, the TGI in test [1] is 4.19 µM; in [2], 25 µM; in test [3], 13.4 µM; in [4], 7.99 µM; in [5] it was 17.7 µM; in [6] it was 2 µM. Further, the TGI turned out to be 6.8 µM in test [7], 7.49 µM in [8], 25.9 µM in test [9] and 16.3 µM in test [10].

As for `C=CCc1c(Cl)nc(Cl)nc1Cl`, the TGI in test [1] was 0.938 µM; in [2] it was 1.07 µM; in test [3], 0.888 µM; in test [4], 0.668 µM; in test [5] it was 3.55 µM; in [6] it was 0.19 µM. Moreover, the TGI in test [7] is 1.32 µM; in test [8], over 100 µM; in test [9], 3.94 µM; in [10], 3.35 µM.

As for `CC(CO)Nc1cc(-c2[nH]c3cccnc3c2-c2ccc(F)cc2)ccn1` (stereo not drawn), the GI50 in [1] was 10.4 µM; in test [2], over 25 µM; in test [3], 19.1 µM; in [4] it was 9.36 µM; in test [5], 8.16 µM; in test [6], over 25 µM. In addition, the GI50 in test [7] is 15.7 µM; in test [8], 17 µM; in [9] it was over 25 µM; in [10] it was 6.86 µM. In addition, the TGI in test [1], in test [2], in [3], in [4], in [5] and in test [6] was over 25 µM in each case. In addition, the TGI in [7], in test [8], in test [9] and in [10] was over 25 µM each time.

For the compound `CN(C)c1cc2ccccc2oc1=O`, the TGI in test [1], in [2], in test [3], in [4], in test [5] and in [6] was over 100 µM throughout. Also, the TGI in test [7], in test [8], in test [9] and in test [10] was over 100 µM throughout.

`CCSC1=NC2C(N(CC)C(=O)N2CC)N1/N=C/C=C/c1ccccc1[N+](=O)[O-]` (stereo not drawn): the GI50 is 0.204 µM in test [1]; 0.313 µM in test [2]; 0.0887 µM in test [3]; 0.0415 µM in test [4]; 0.228 µM in test [5]; 0.0395 µM in test [6]. Besides, the GI50 in [7] is 0.385 µM; in test [8], 0.334 µM; in test [9], 0.0612 µM; in [10] it was 36.8 µM. Further, the TGI in [1] is over 100 µM; in test [2], over 100 µM; in test [3], over 37.7 µM; in test [4], over 100 µM; in [5], 12.2 µM; in [6] it was 46.2 µM. In addition, the TGI in test [7] was over 100 µM; in [8], over 34.1 µM; in test [9], over 100 µM; in [10], over 100 µM.

Regarding `O=C1/C(=C/c2ccc([N+](=O)[O-])cc2)CN(C(=O)CCN2CCC(=NO)CC2)C/C1=C\c1ccc([N+](=O)[O-])cc1`, the GI50 was 0.771 µM in test [1]; 1.91 µM in test [2]; 0.448 µM in [3]; 0.431 µM in [4]; 1.15 µM in test [5]; 0.86 µM in test [6]. Besides, the GI50 in test [7] is 0.806 µM; in [8], 0.368 µM; in [9], 2.09 µM; in test [10], 2.01 µM. The TGI in test [1] was found to be 3.9 µM; in [2] it was 6.97 µM; in test [3] it was 1.18 µM; in test [4], 2.87 µM; in [5] it was 3.95 µM; in test [6], 3.28 µM. For the same compound, the TGI is 5.5 µM in test [7], 1.6 µM in [8], 5.39 µM in test [9] and 6.14 µM in test [10].

Regarding `CCCN1C(=O)NC(=O)C(CC)(N2C(=O)c3c(F)c(F)c(F)c(F)c3C2=O)C1=O` (stereo not drawn), the GI50 was 1.85 µM in [1]; 2.04 µM in [2]; 1.42 µM in test [3]; 0.987 µM in test [4]; 2.24 µM in [5]; 1.32 µM in [6]. The GI50 in [7] was 2.54 µM; in test [8], 0.596 µM; in test [9], 3.93 µM; in test [10] it was 2.29 µM. Also, the TGI in test [1] was found to be 6.82 µM; in [2], 4.4 µM; in test [3], 2.84 µM; in test [4], 4.06 µM; in [5], 5.71 µM; in test [6] it was 3.34 µM. Moreover, the TGI in test [7] was determined as 7.81 µM; in test [8], 3.14 µM; in test [9], 14.6 µM; in test [10] it was 6 µM.

For `NC(=O)CNC(=O)[C@@H]1CC(OCCC(=O)O)CN1C(=O)C1CCCN1C(=O)OCc1ccccc1` (stereo partly drawn), the TGI in test [1], in test [2], in [3], in test [4], in test [5] and in test [6] was over 100 µM throughout. For the same compound, the TGI in test [7], in test [8], in [9] and in test [10] was over 100 µM in each case.

With `O=c1oc2ccccc2c2c1Sc1ccccc1N2`, the TGI in test [1], in [2], in [3], in test [4], in test [5] and in [6] was over 100 µM each time. The TGI in test [7], in test [8], in [9] and in test [10] was over 100 µM throughout.
